Data set [1] deals with NCKX5. In words: Western blot of NCKX5 protein 5 days after siRNA mediated knockdown. Type of data set: cell-based, human. The conditions noted are these: 5 days after siRNA knockdown, rabbit anti-NCKX5 pAb (anti C-terminus peptide). How it is done: Using western blot we have investigated NCKX5 protein expression 5 days after siRNA mediated knockdown (all 5 siRNA duplexes and controls were tested). Western blot was also used to evaluate the expression and processing (maturation) of tyrosinase (tyr) in the same samples. SDS-PAGE (10% PA for NCKX5, 4-12% for tyr, 5 μg protein/lane). A) Western blot for NCKX5: Detection via rabbit anti-NCKX5 pAb (anti C-terminus peptide). B) Western blot for tyr, via goat pAb (Santa Cruz). 1=No treatment, 2=scrambled siRNA control, 3-7=siRNA's 185, 260, 301, 492, 1110. […] These bands are absent in the samples where SLC24A5-specific duplexes were used (lanes 3-7). It is possible that the doublet represents the presence of alternate SLC24A5 splice variants.
(§1) • Cultured Cells (trypsinised off of 6-well culture plates) were lysed on ice for 20 minutes in 1.5 ml eppendorfs using 100 μl per sample of 1% triton X-100 in dPBS containing protease inhibitor cocktail (Sigma-Aldrich, Poole, UK). Cell extracts were centrifuged (10 minutes at 13000 g) to separate melanin and cell debris from the solubilised protein. The protein concentration of each supernatant fraction was determined by BCA assay as described in A).
• 20 μg protein (as determined by BCA assay) was reconstituted into 20 μl of 1×LDS loading buffer (Invitrogen Ltd, Paisley, UK) containing 1× reducing agent (Invitrogen Ltd, Paisley, UK), heated to 40° C. for 30 minutes and loaded onto 10% Novex bis-tris acrylamide gels with 1×MOPS running buffer (Invitrogen Ltd, Paisley, UK). Kaleidoscope molecular weight markers (Bio-Rad Laboratories Ltd, Hemel Hempstead, UK) were run alongside samples for size determinations. Protein was transferred onto PVDF membrane by electrophoresis transfer, using a Bio-Rad mini-cell II trans-blotter and 1× Tris-Glycine transfer buffer (Invitrogen Ltd, Paisley, UK)+15% v/v methanol (100V for 1 hour).
• Membranes containing transferred protein were “blocked” using 2% w/v skimmed milk protein (SMP) in PBS+0.05% tween20 (PBST) for 1 hour with gentle agitation. Peptide affinity purified rabbit polyclonal antibody (raised using a peptide equivalent to the C-terminus of NCKX5-GNNKIRGCGG) was diluted to 0.5 μg/ml using 2% SMP in PBST. The diluted antibody was incubated with the membrane for 2 hours at room temperature. The membrane was then rinsed with PBST (4×5 minutes washes). Peroxidase conjugated anti-rabbit IgG (Jackson ImmunoResearch Laboratories Inc. PA, USA) was diluted 1/4000 using 2% SMP in PBST and was incubated with the membranes for 1 hour. Finally, membranes were washed using 6×5 minute rinses with PBST. SuperSignal Western pico (Perbio Science UK Ltd, Northumberland, UK) chemiluminescence detection reagents was used to probe the membranes for secondary antibody binding as per the manufacturers instructions. Visualisation of results was via a Chemidoc XRS imaging system (Bio-Rad Laboratories Ltd, Hemel Hempstead, UK).
(In western blotting, separated proteins are transferred to a membrane and probed.)

Data set [2] relates to lightly pigmented human melanocytes. In words: Quantitative assessment of melanogenesis (melanin content) after siRNA knockdown in human melanocytes. It is filed as cell-based. The conditions noted are these: replicated x3. How it is done:
A decrease in post-treatment melanin content is noted for duplex (492) in lightly pigmented human melanocytes (replicated ×3).
as §1
• To each pellet of melanin+cell debris obtained in section 2), 0.5 ml of diethyl ether:ethanol (1:1 ratio) was added. Eppendorfs were vortexed vigorously for 30 seconds and centrifuged at 13000 g for 5 minutes. The ether layer was carefully removed to waste and a further 0.5 ml was added. The tubes were agitated and centrifuged as before. The liquid phase was again removed and the melanin pellets were allowed to air dry at room temperature for 10 minutes. […] OD^45 0 of each sample was determined and the melanin content of each fraction was calculated from a synthetic melanin standard curve, prepared as described above. In treatment comparisons, results were expressed as μg melanin per μg protein. […]

In data set [3] the test system is B16 cells. Kind of data set: Cell viability of B16 cells after siRNA treatment (Wst1 assay). Type of data set: cell-based, mouse. The conditions noted are these: end of each experiment. How it is done: (§2) Media was removed and melanin quantified by OD450. Cell viability measured using Wst1 proliferation reagent (Roche) before lysis using 1% triton ×100. Protein content of each well was determined by BCA assay.
Cell viability and protein content determination post-treatment could help to identify the manner in which SLC24A5 modulates pigment production in B16 melanocytes. […] This conclusion is supported by data obtained for protein content.
• The phenol free DMEM culture media was removed from each well for quantification of secreted melanin. Each well of the culture plate was then rinsed once with Dulbeccos phosphate buffered saline (dPBS) (Sigma-Aldrich, Poole, UK) and replaced with 0.5 ml Wst1 reagent (diluted 1/10 in media) (Roche Diagnostics Ltd, West Sussex, UK). The culture plate was incubated at 37° C., 5% CO2 for 30 minutes. The Wst1 reagent was removed from each well for determination of cell viability and each well was again rinsed with dPBS. 200 μl of 1% w/v Triton X-100 (Sigma-Aldrich, Poole, UK) in dPBS was added to each well of the culture plate. The plate was incubated for 20 minutes at 4° C. on an orbital shaker. Supernatant from each well was removed and centrifuged at 13000 g for 5 minutes to remove cell debris. Soluble fractions were kept for protein quantification.
• The OD^450 of 100 μl fractions (measured in duplicate) of post-incubation Wst1 reagent was measured. […]

Data set [4] deals with B16 cells. Kind of data set: Melanin synthesis in B16 cells after SLC24A5 siRNA knockdown (OD450 of media). It is filed as cell-based, mouse. The conditions noted are these: transfected 8 hours, cultured a further 3 days. How it is done: Cells were transfected (lipofectamine 2000) with siRNA duplexes or controls for 8 hours. Cells were cultured for a further 3 days prior to analyses.
as §2
Experiment (each in quadruplicate) reproduced x3 consecutively.
24 h prior to transfection, B16 cells were plated at 25,000 cells/well in a 48-well plate. Cells in quadruplicate wells were transfected with 2 μg/ml Lipofectamine 2000 and 50 nM Stealth™ RNAi duplexes targeting SLC24A5 or scrambled controls (from Invitrogen). […]
Cells were incubated with transfection reagents for 6-8 h, reagents were then removed and replaced with phenol red-free DMEM supplemented with 10% FCS and 4 mM L-glutamine for 72 h. At 72 h, cells were taken for viability and total protein determination and supernatants analysed for melanin production.
• The phenol free DMEM culture media was removed from each well for quantification of secreted melanin. […] Soluble fractions were kept for protein quantification.
• 1 mg synthetic melanin (Sigma-Aldrich, Poole, UK) was dissolved in 50 μl of 100% DMSO. […] This standard was serially diluted (5-fold) in media+FCS to give a standard curve for quantification of melanin in sample preparations (range from 1000 to 8 μg/ml). […]

“Also recorded” adds a separate entry of the source.

In the case of “duplex 185: Stealth siRNA duplex against human SLC24A5, exon 1 & 2 boundary; 5′ AGGGCCACAGGAAATAGCACCCAAT 3′ (antisense ATTGGGTGCTATTTCCTGTGGCCCT; Stealth chemically modified siRNA duplex, pattern not given here)”, the “NCKX5 bands of approx. 42 and 44 KDa on western blot” value (shortened to “NCKX5 bands of approx. 42 and 44 KDa”) in data set [1] is “absent”.
“duplex 260: Stealth siRNA duplex against human SLC24A5, exon 2; 5′ GAGCGCAGAGATGGAGGCATCATAA 3′ (antisense TTATGATGCCTCCATCTCTGCGCTC; Stealth chemically modified siRNA duplex, pattern not given here)”: the “NCKX5 bands of approx. 42 and 44 KDa” value in data set [1] was “absent”.
On the same count and under the same terms, to “duplex 301: Stealth siRNA duplex against human SLC24A5, exon 2; 5′ CGTTTACATGTTCATGGCCATATCT 3′ (antisense AGATATGGCCATGAACATGTAAACG; Stealth chemically modified siRNA duplex, pattern not given here)” belongs “absent”.
Take “duplex 492: Stealth siRNA duplex against human SLC24A5, exon 3 & 4 boundary; 5′ GCACCATCCTTGGATCTGCAATTTA 3′ (antisense TAAATTGCAGATCCAAGGATGGTGC; Stealth chemically modified siRNA duplex, pattern not given here)”: in data set [2], the post-treatment melanin content result is listed as “decrease”. For the same substance, in data set [1], the “NCKX5 bands of approx. 42 and 44 KDa” value is “absent”.
On to “duplex 567: Stealth RNAi duplex targeting murine SLC24A5; sense 5′-CCUCUUCCGAGACUGUGCAGUGUAU-3′ (antisense GGAGAAGGCUCUGACACGUCACAUA; Stealth chemically modified RNAi duplex, pattern not given here; one strand is listed 3' to 5')”, for which, in data set [3], the “cell viability / toxicity” value is on record as “significant toxicity”. The “melanin synthesis / pigment production” value in data set [4] was “visibly decreased”.
Consider “duplex 762: Stealth RNAi duplex targeting murine SLC24A5; sense 5′-CAGAGCUAUGGAGGAGAGAAUUGAA-3′ (antisense GUCUCGAUACCUCCUCUCUUAACUU; Stealth chemically modified RNAi duplex, pattern not given here; one strand is listed 3' to 5')”, for which, in data set [3], the “cell viability / toxicity” value is “without affecting viability”. In data set [4] (listed as 762), the “melanin synthesis / pigment production” value is “visibly decreased; also recorded: reduce pigment production”.
Take “duplex 1110: Stealth siRNA duplex against human SLC24A5, exon 7; 5′ CCGCATTTACATATATCCTGGTTTG 3′ (antisense CAAACCAGGATATATGTAAATGCGG; Stealth chemically modified siRNA duplex, pattern not given here)”: the “NCKX5 bands of approx. 42 and 44 KDa” value in data set [1] is “absent”.

Source of the values: patent US20090181115A1, “Method of Screening for Compounds That Alter Skin and/or Hair Pigmentation” (priority 2006, published 2009).
